Results as given in patent US9943482B2, “Milk-derived microvesicle compositions and related methods” (UNIVERSITY OF LOUISVILLE RESEARCH FOUNDATION, INC., priority 2013, dated 2018).
Like-named read-outs stand apart in the source and are kept apart here.

Columns and labels:
[1] = Loading of therapeutic agents into bovine milk-derived exosomes; type: physicochemical
Method: (§1) Several procedures were developed to load therapeutic agents onto the milk- or colostrum-derived exosomes. […] In one preferred embodiment, incubation of exosomes in PBS with test agents in the presence of 10% ethanol or 10% ethanol:acetonitrile (1:1) allowed for increased loading of therapeutic agents into the exosomes. The agents utilized in those studies included curcumin, withaferin A, demethoxycurcumin, delphinidin, cyanidin, a native mixture of (five) anthocyanidins from bilberry, punicalagin, and tanshinone II. The chemotherapeutic agents doxorubicin, paclitaxel, and docetaxel were also loaded in the exosomes. In this regard, it was observed that the exosomes accepted both hydrophobic (paclitaxel, docetaxel, curcumin, withaferin A, tanshinone II) and hydrophilic agents (berry anthocyanidins, punicalagin) with a loading efficiency of 4% to 65% with respect to exosomal proteins, as determined by measurement of the drug and exosomal protein contents (Tables IV and V). Sucrose density gradient ultracentrifugation confirmed the presence of drugs embedded in the exosomes (FIGS. 5-8). When tested for in vitro release using dialysis tubes against buffer containing the surfactant, Tween-80 [47] at 37° C., PAC and WFA were released time-dependently—20%, 43% and 70% PAC in 2, 6 and 19 h, and 12%, 40% and 58% WFA in 1, 4, and 24 h, respectively (FIGS. 10, 11A, and 11B).

[2] = In vitro release from loaded exosomes, dialysis tubes against buffer with Tween-80 at 37° C.; type: physicochemical
Method: as §1

[3] = 3 mg chemo. drug, 30 mg exosomal protein (Sample A)
[4] = 6 mg chemo. drug, 30 mg exosomal protein (Sample B)
[5] = 9 mg chemo. drug, 30 mg exosomal protein (Sample C)
[6] = 12 mg chemo. drug, 30 mg exosomal protein (Sample D)
[7] = 18 mg chemo. drug, 30 mg exosomal protein (Sample E)

% Drug load [1, 3] | % Drug load [1, 4] | % Drug load [1, 5] | % Drug load [1, 6] | % Drug load [1, 7] | stability of agent extracted from residual material of the release study [2] | in vitro release from exosomes ([2]; 2 h) | in vitro release from exosomes ([2]; 6 h) | in vitro release from exosomes ([2]; 19 h) | Compound | % Drug load ([1]; 5 mg agent, 50 mg exosomal protein (Sample A)) | % Drug load ([1]; 10 mg agent, 50 mg exosomal protein (Sample B)) | % Drug load ([1]; 20 mg agent, 50 mg exosomal protein (Sample C)) | % Drug load ([1]; 25 mg agent, 50 mg exosomal protein (Sample D)) | in vitro release from exosomes ([2]; 1 h) | in vitro release from exosomes ([2]; 4 h) | in vitro release from exosomes ([2]; 24 h) | stability of agent extracted from residual material of the release study ([2]; HPLC or UV spectral analysis)
6.0% | 17.7% | 34.5% | 49.1% | 55.1% | stable during the workup |  |  |  | CC(=O)O[C@@]12CO[C@@H]1C[C@H](O)[C@@]1(C)C(=O)[C@H](O)C3=C(C)[C@@H](OC(=O)[C@H](O)[C@@H](NC(=O)OC(C)(C)C)c4ccccc4)C[C@@](O)([C@@H](OC(=O)c4ccccc4)[C@H]21)C3(C)C [Docetaxel, docetaxel] |  |  |  |  |  |  |  | 
15.7% | 20.3% | 14.9% | 36.6% | 64.6% | stable during the workup | 20% | 43% | 70% | CC(=O)O[C@H]1C(=O)[C@@]2(C)[C@H]([C@H](OC(=O)c3ccccc3)[C@]3(O)C[C@H](OC(=O)[C@H](O)[C@@H](NC(=O)c4ccccc4)c4ccccc4)C(C)=C1C3(C)C)[C@]1(OC(C)=O)CO[C@@H]1C[C@@H]2O [Paclitaxel, paclitaxel] |  |  |  |  |  |  |  | 
 |  |  |  |  |  |  |  |  | CC1=C(CO)C(=O)O[C@@H]([C@@H](C)[C@H]2CC[C@H]3[C@@H]4C[C@H]5O[C@]56[C@@H](O)C=CC(=O)[C@]6(C)[C@H]4CC[C@]23C)C1 [Withaferin A, withaferin A] | 3.8% | 8.6% | 31.4% | 44.8% | 12% | 40% | 58% | stable during the workup
